Source: patent US20190038759A1 (priority 2017, published 2019)
Values after ≈ are worked out from the molar mass of the structure shown. Read-outs that look alike come from different tables or passages of the source. Non-standard residues stand in square brackets, D forms with d. Residues, ends and D or L forms follow the SMILES beside them. *: point of attachment. Propyl(3-guanidino) = N=C(N)NCCC*; Hyp = O=C(O)[C@@H]1C[C@@H](O)CN1; Isobutyl = CC(C)C*

Assays:
[1] = test system: S. aureus (ATCC 6538) biofilm; experiment: Disruption of established biofilms, crystal violet; type: cell-based
Protocol: (§1) The compounds of the present disclosure were examined for their ability to disrupt bacterial biofilms using the microtiter dish biofilm formation assay. Briefly, overnight cultures of S. aureus (ATCC 6538) and S. epidermidis (ATCC 35984) were diluted 1:100 in TSB supplemented with 1% glucose. Overnight cultures of P. aeruginosa PAO1 and A. baumannii ATCC BAA-1605 were diluted 1:100 in M63 minimal medium supplemented with magnesium sulfate, glucose and casamino acids. Bacterial suspensions were incubated in 96-well plates at 37° C. for 24 hours. After removing media, wells were rinsed with PBS to remove planktonic bacteria before re-filling wells with fresh media. Compounds were added at specific concentrations and plates were incubated at 37° C. for 24 hours. After incubation, wells were washed and biofilms were stained with 0.5% (w/v) crystal violet for 30 minutes. The dye was solubilized with ethanol (95%) and the biofilm mass was quantified at OD595. Experiments were done in triplicate and repeated twice independently.

[2] = test system: Colistin-resistant P. aeruginosa 1109; experiment: microbe, parasite or virus in culture; type: cell-based; conditions: Table 3, colistin-resistant P. aeruginosa 1109, read-out: Minimum inhibitory concentration (MIC)
[3] = test system: LPS-induced activation of the LAL enzyme (Limulus amoebocyte lysate); experiment: LPS binding: inhibition of LPS-induced activation of LAL enzyme; type: biochemical; conditions: at 10 (unit not given)
interleukin-6 (IL-6) = experiment: Anti-inflammatory effect on LPS stimulated macrophages, ELISA; type: cell-based; conditions: 10 μM, LPS 150 ng/ml, J774A.1, six hours
Protocol: (§2) The anti-inflammatory effect of compounds on LPS stimulated macrophages, J774A.1 cells was investigated. Next, the cells were stimulated with LPS (150 ng/ml final concentration) in the presence of 10 μM of compounds. Cells that were stimulated with LPS alone and untreated cells served as controls. Cells were incubated for six hours at 37° C. and supernatants from each treatment were collected and stored at −20° C. until use. Cytokine detection of tumor necrosis factor-α (TNF-α) and interleukin-6 (IL-6) in supernatants was done using ELISA as described before following the manufacturer's instructions^24,25. Cytokine levels were expressed as percent change relative to the LPS-stimulated control, using triplicate samples for each treatment condition.

[4] = test system: tumor necrosis factor-α (TNF-α); experiment: as above; type: cell-based; conditions: 10 μM, LPS 150 ng/ml, J774A.1, six hours
Protocol: as §2

E. coli (ATCC 25922) = type: cell-based; conditions: at five times MIC
C. elegans = conditions: 50 μM
S. aureus (ATCC 6538) = experiment: MIC, biofilm-forming clinical isolate, broth microdilution; type: cell-based; conditions: Staphylococcus aureus, ATCC6538
[5] = test system: S. epidermidis (ATCC 35984); experiment: as above; type: cell-based; conditions: Staphylococcus epidermidis, ATCC35984
[6] = test system: Methicillin-resistant S. aureus USA400; experiment: MIC against clinical and drug-resistant isolates; type: cell-based; conditions: Staphylococcus aureus; Table 3, MRSA USA400; read-out: Minimum inhibitory concentration (MIC)
P. aeruginosa PAO1 = experiment: MIC against clinical and drug-resistant isolates; type: cell-based; conditions: Pseudomonas aeruginosa; Table 3, P. aeruginosa PAO1; read-out: Minimum inhibitory concentration (MIC)
A. baumannii BAA-1605 = experiment: MIC against clinical and drug-resistant isolates; type: cell-based; conditions: Acinetobacter baumannii, BAA1605; Table 3, A. baumannii BAA-1605; read-out: Minimum inhibitory concentration (MIC)
K. pneumoniae BAA-1706 = experiment: MIC against clinical and drug-resistant isolates; type: cell-based; conditions: Klebsiella pneumoniae, BAA1706; Table 3, K. pneumoniae BAA-1706; read-out: Minimum inhibitory concentration (MIC)
[7] = test system: Vancomycin-resistant E. faecium ATCC 700221; experiment: MIC against clinical and drug-resistant isolates; type: cell-based; conditions: Enterococcus faecium, ATCC700221; Table 3, vancomycin-resistant E. faecium ATCC 700221; read-out: Minimum inhibitory concentration (MIC)
Salmonella enteritidis [8] = experiment: microbe, parasite or virus in culture; conditions: Salmonella enterica
Brucella abortus [9] = experiment: microbe, parasite or virus in culture
Shigella flexneri [10] = experiment: microbe, parasite or virus in culture
Mycobacterium smegmatis [11] = experiment: microbe, parasite or virus in culture; conditions: Mycolicibacterium smegmatis
[12] = test system: Mycobacterium tuberculosis H37Ra; experiment: microbe, parasite or virus in culture
[13] = test system: Escherichia coli (ATCC 25922); experiment: In vitro antimicrobial activity (MIC), OD-based growth; conditions: ATCC25922
[14] = test system: Staphylococcus aureus (ATCC 25923); experiment: as above; conditions: ATCC25923
[15] = test system: intracellular pathogens in J774A.1 cells; type: cell-based; conditions: infected J774A.1 macrophages
[16] = test system: A. baumannii ATCC BAA-1605 biofilm; experiment: Disruption of established biofilms, crystal violet; type: cell-based; conditions: 32 μM
Protocol: as §1

[17] = test system: P. aeruginosa PAO1 biofilm; experiment: Disruption of established biofilms, crystal violet; type: cell-based; conditions: 32 μM
Protocol: as §1

[18] = test system: S. epidermidis ATCC 35984 biofilm; experiment: Disruption of established biofilms, crystal violet; type: cell-based; conditions: S. epidermidis mature biofilm, 64 μM
Protocol: as §1

Salmonella enteritidis [19] = test system: Salmonella enteritidis
Brucella abortus [20] = test system: Brucella abortus
Shigella flexneri [21] = test system: Shigella flexneri
Mycobacterium smegmatis [22] = test system: Mycobacterium smegmatis
[23] = test system: Mycobacterium tuberculosis H37Ra

CC(=O)NC[C@H]1CN(c2ccc(N3CCOCC3)c(F)c2)C(=O)O1 [linezolid]
disruption of biofilm mass ([1]; S. aureus mature biofilm, 8 μM): approximately 50%

colistin
MIC [2]: 128 µM
inhibition of the LAL enzyme [3]: 79.76%±4.6
decrease of IL-6 levels (interleukin-6 (IL-6)): 95.04%±0.56
decrease of TNF-α levels [4]: 97.53%±0.32

CC[C@H](C)[C@H](NC(=O)CN)C(=O)NCC(=O)N[C@@H](C)C(=O)N[C@H](C(=O)N[C@@H](CC(C)C)C(=O)N[C@@H](CCCCN)C(=O)N[C@H](C(=O)N[C@@H](CC(C)C)C(=O)N[C@H](C(=O)N[C@H](C(=O)NCC(=O)N[C@@H](CC(C)C)C(=O)N1CCC[C@H]1C(=O)N[C@@H](C)C(=O)N[C@@H](CC(C)C)C(=O)N[C@H](C(=O)N[C@@H](CO)C(=O)N[C@@H](Cc1c[nH]c2ccccc12)C(=O)N[C@H](C(=O)N[C@@H](CCCCN)C(=O)N[C@@H](CCCNC(=N)N)C(=O)N[C@@H](CCCCN)C(=O)N[C@@H](CCCNC(=N)N)C(=O)N[C@@H](CCC(N)=O)C(=O)N[C@@H](CCC(N)=O)C(N)=O)[C@@H](C)CC)[C@@H](C)CC)[C@@H](C)O)[C@@H](C)O)C(C)C)C(C)C [melittin]
release of beta-galactosidase from E. coli (E. coli (ATCC 25922)): substantial level of release
viability of C. elegans (C. elegans; after 3 days of treatment): no live worms

NC[C@H]1O[C@H](O[C@H]2[C@H](O)[C@@H](O[C@H]3O[C@H](CO)[C@@H](O)[C@H](N)[C@H]3O)[C@H](N)C[C@@H]2N)[C@H](O)[C@@H](O)[C@@H]1O [kanamycin]
MIC (S. aureus (ATCC 6538); Table 2, S. aureus clinical isolate that forms biofilms, read-out: MIC): 4 µM (≈ 1.94 µg/mL)
MIC (S. aureus (ATCC 6538); Table 3, S. aureus ATCC 6538, read-out: Minimum inhibitory concentration (MIC)): 2 µM (≈ 0.969 µg/mL)
MIC ([5]; Table 2, S. epidermis clinical isolate that forms biofilms, read-out: MIC): > 128 µM
MIC ([5]; Table 3, S. epidermidis ATCC 35984, read-out: Minimum inhibitory concentration (MIC)): > 256 µM
MIC [6]: 4 µM (≈ 1.94 µg/mL)
MIC (P. aeruginosa PAO1): > 256 µM
MIC ([2]; Pseudomonas aeruginosa): > 256 µM
MIC (A. baumannii BAA-1605): 128 µM (≈ 62 µg/mL)
MIC (K. pneumoniae BAA-1706): 256 µM (≈ 124 µg/mL)
MIC [7]: > 256 µM
decrease of IL-6 levels (interleukin-6 (IL-6)): 10%±3.30
decrease of TNF-α levels [4]: 11.41%±4.5
disruption of biofilm mass ([1]; S. aureus mature biofilm, 8 μM): approximately 50%
viability of C. elegans (C. elegans; glp-4(bn2) I, sek-1(km4), Caenorhabditis elegans, in vivo, 3 days): > 90%
MIC (Salmonella enteritidis [8]): 16 µM (≈ 7.75 µg/mL)
MIC (Brucella abortus [9]): 4 µM (≈ 1.94 µg/mL)
MIC (Shigella flexneri [10]): 2 µM (≈ 0.969 µg/mL)
MIC (Mycobacterium smegmatis [11]): 8 µM (≈ 3.88 µg/mL)
MIC [12]: 2 µM (≈ 0.969 µg/mL)
MIC [13]: 2 µM (≈ 0.969 µg/mL)
MIC [14]: 2 µM (≈ 0.969 µg/mL)

CC(C)CO[C@@H]1C[C@@H](C(=O)N2C[C@H](OCCCNC(=N)N)C[C@H]2C(=O)N2C[C@H](OCCCNC(=N)N)C[C@H]2C(=O)N2C[C@H](OCC(C)C)C[C@H]2C(=O)N2C[C@H](OCCCNC(=N)N)C[C@H]2C(=O)N2C[C@H](OCCCNC(=N)N)C[C@H]2C(=O)N2C[C@H](OCC(C)C)C[C@H]2C(=O)N2C[C@H](OCCCNC(=N)N)C[C@H]2C(=O)N2C[C@H](OCCCNC(=N)N)C[C@H]2C(=O)N2C[C@H](OCC(C)C)C[C@H]2C(=O)N2C[C@H](OCCCNC(=N)N)C[C@H]2C(=O)N2C[C@H](OCCCNC(=N)N)C[C@H]2C(=O)N2C[C@H](OCC(C)C)C[C@H]2C(N)=O)N(C(=O)CN)C1 [Example P14LRR] (H-G[Hyp](Isobutyl)[Hyp](Propyl(3-guanidino))[Hyp](Propyl(3-guanidino))[Hyp](Isobutyl)[Hyp](Propyl(3-guanidino))[Hyp](Propyl(3-guanidino))[Hyp](Isobutyl)[Hyp](Propyl(3-guanidino))[Hyp](Propyl(3-guanidino))[Hyp](Isobutyl)[Hyp](Propyl(3-guanidino))[Hyp](Propyl(3-guanidino))[Hyp](Isobutyl)-NH2; N-terminus assumed)
clearance of intracellular bacteria [15]: neither kanamycin nor P14LRR is capable of effectively clearing intracellular bacteria
inhibition of the LAL enzyme [3]: 71.2%±5
decrease of IL-6 levels (interleukin-6 (IL-6)): 81.92%±0.78
decrease of TNF-α levels [4]: 68.4%±5.43
reduction of biofilm mass [16]: 30%
disruption of biofilm [17]: ineffective
disruption of biofilm mass ([1]; S. aureus mature (24 hour) biofilm, 1 μM): not effective
disruption of biofilm mass ([1]; S. aureus mature biofilm, 8 μM): not effective
disruption of biofilm mass [18]: approximately 50%
MIC (Salmonella enteritidis [19]): 32 µM (≈ 83.8 µg/mL)
MIC (Brucella abortus [20]): 16 µM (≈ 41.9 µg/mL)
MIC (Shigella flexneri [21]): 8 µM (≈ 20.9 µg/mL)
MIC (Mycobacterium smegmatis [22]): 8 µM (≈ 20.9 µg/mL)
MIC [23]: 16 µM (≈ 41.9 µg/mL)
viability at 72 h, 50 µM (in vivo): > 90%

CN[C@H](CC(C)C)C(=O)N[C@H]1C(=O)N[C@@H](CC(N)=O)C(=O)N[C@H]2C(=O)N[C@H]3C(=O)N[C@H](C(=O)N[C@H](C(=O)O)c4cc(O)cc(O)c4-c4cc3ccc4O)[C@H](O)c3ccc(c(Cl)c3)Oc3cc2cc(c3O[C@@H]2O[C@H](CO)[C@@H](O)[C@H](O)[C@H]2O[C@H]2C[C@](C)(N)[C@H](O)[C@H](C)O2)Oc2ccc(cc2Cl)[C@H]1O [vancomycin]
disruption of biofilm mass ([1]; S. aureus mature biofilm, 8 μM): approximately 50%
